Test results from patent publication US9474790B2, “Stable, protracted GLP-1/glucagon receptor co-agonists for medical use” (Novo Nordisk A/S, priority 2013, dated 2016).
Numbered stars: 1 amine (or outer) side, 2 acyl side, 3 side chain; on linkers, the order of the positions; unused ones are H or OH. Square brackets hold non-standard residues; d marks the D form. Side chains are listed from the residue outwards. Peptide text beside a SMILES is read from it. * marks the point of attachment. C18 diacid = O=C(O)CCCCCCCCCCCCCCCCC(=O)*; γGlu = O=C(O)[C@H](CCC(=O)[*:2])N[*:1]; Ac4c = NC1(C(=O)O)CCC1; AEEA = NCCOCCOCC(=O)O; Aib = CC(C)(N)C(=O)O

Target: T1, human GLP-1 receptor (Homo sapiens, UniProt P43220)
T1 construct: expressed in transfected cells; host or cells: BHK cells (parent BHKTS13), clone FCW467-12A/KZ10-1, with CRE luciferase
Assay: GLP-1 receptor potency, CRE luciferase reporter gene assay in BHK cells
Format: cell-based
Conditions: BHK cells expressing human GLP-1 receptor, read-out: EC50 GLP-1R
Procedure, shortened: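 BHK cells stably expressing human GLP-1 receptor with CRE-luciferase reporter, 5×10EE3 cells/well in phenol red-free DMEM with 10 mM Hepes, 2% ovalbumin, 0.2% Pluronic F-68. Compounds at final 1×10EE-6 to 1×10EE-13 M, 3 h at 37° C; steadylite luminescence; EC50 by four-parameter fit, in pM.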

T1 sequence (P43220 24-463): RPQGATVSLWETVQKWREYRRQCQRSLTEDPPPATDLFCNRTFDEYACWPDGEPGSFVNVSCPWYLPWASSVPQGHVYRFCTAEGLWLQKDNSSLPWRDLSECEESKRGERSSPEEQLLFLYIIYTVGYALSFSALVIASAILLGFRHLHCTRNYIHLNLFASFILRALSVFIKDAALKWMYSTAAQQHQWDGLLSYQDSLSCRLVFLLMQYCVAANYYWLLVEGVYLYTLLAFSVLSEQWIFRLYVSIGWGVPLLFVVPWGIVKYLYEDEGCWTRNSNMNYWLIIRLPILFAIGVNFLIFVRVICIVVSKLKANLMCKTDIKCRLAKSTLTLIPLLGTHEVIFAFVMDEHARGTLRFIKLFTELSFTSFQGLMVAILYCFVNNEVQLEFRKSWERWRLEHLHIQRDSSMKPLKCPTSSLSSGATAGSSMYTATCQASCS

Structure (SMILES)	EC50 [pM]
CC(C)C[C@H](NC(=O)[C@H](Cc1ccc(O)cc1)NC(=O)[C@H](CCCCN)NC(=O)[C@H](CO)NC(=O)[C@H](CC(C)C)NC(=O)[C@H](CC(=O)O)NC(=O)[C@H](CO)NC(=O)[C@@H](NC(=O)[C@H](Cc1ccccc1)NC(=O)[C@@H](NC(=O)CNC(=O)[C@H](CCC(N)=O)NC(=O)C1(NC(=O)[C@@H](N)Cc2c[nH]cn2)CCC1)[C@@H](C)O)[C@@H](C)O)C(=O)N[C@@H](CCC(=O)O)C(=O)N[C@@H](CO)C(=O)N[C@@H](CCCNC(=N)N)C(=O)N[C@@H](CCCNC(=N)N)C(=O)N[C@@H](C)C(=O)N[C@@H](CCC(N)=O)C(=O)N[C@@H](CC(=O)O)C(=O)N[C@@H](Cc1ccccc1)C(=O)N[C@H](C(=O)N[C@@H](CCC(N)=O)C(=O)N[C@@H](Cc1c[nH]c2ccccc12)C(=O)N[C@@H](CC(C)C)C(=O)N[C@@H](CC(C)C)C(=O)N[C@@H](CCCCNC(=O)COCCOCCNC(=O)COCCOCCNC(=O)CC[C@H](NC(=O)CC[C@H](NC(=O)CC[C@H](NC(=O)CCCCCCCCCCCCCCCCC(=O)O)C(=O)O)C(=O)O)C(=O)O)C(=O)N[C@H](C(N)=O)[C@@H](C)O)C(C)C [Example 63, N^ε28-[2-[2-[2-[[2-[2-[2-[[(4S)-4-carboxy-4-[[(4S)-4-carboxy-4-[[(4S)-4-carboxy-4-(17-carboxyheptadecanoylamino)butanoyl]amino]butanoyl]amino]butanoyl]amino]ethoxy]ethoxy]acetyl]amino]ethoxy]ethoxy]acetyl]-[Acb2,Leu10,Glu15,Leu27,Lys28]-Glucagon amide] (H-H[Ac4c]QGTFTSDLSKYLESRRAQDFVQWLLK([AEEA-AEEA-γGlu-γGlu-γGlu-C18 diacid])T-NH2; N-terminus assumed)	7
CC(C)C[C@H](NC(=O)[C@H](Cc1ccc(O)cc1)NC(=O)[C@H](CCCCN)NC(=O)[C@H](CO)NC(=O)[C@H](CC(C)C)NC(=O)[C@H](CC(=O)O)NC(=O)[C@H](CO)NC(=O)[C@@H](NC(=O)[C@H](Cc1ccccc1)NC(=O)[C@@H](NC(=O)CNC(=O)[C@H](CCC(N)=O)NC(=O)C(C)(C)NC(=O)[C@@H](N)Cc1c[nH]cn1)[C@@H](C)O)[C@@H](C)O)C(=O)N[C@@H](CCC(=O)O)C(=O)N[C@@H](CO)C(=O)N[C@@H](CCCNC(=N)N)C(=O)N[C@@H](CCCNC(=N)N)C(=O)N[C@@H](C)C(=O)N[C@@H](CCCNC(=N)N)C(=O)N[C@@H](CCC(=O)O)C(=O)N[C@@H](Cc1ccccc1)C(=O)N[C@H](C(=O)N[C@@H](CCC(N)=O)C(=O)N[C@@H](Cc1c[nH]c2ccccc12)C(=O)N[C@@H](CC(C)C)C(=O)N[C@@H](CC(C)C)C(=O)N[C@@H](CCCCNC(=O)CC[C@H](NC(=O)CC[C@H](NC(=O)[C@H](CO)NC(=O)[C@H](CCC(=O)O)NC(=O)[C@H](CO)NC(=O)CC[C@H](NC(=O)CC[C@H](NC(=O)CCCCCCCCCCCCCCCCC(=O)O)C(=O)O)C(=O)O)C(=O)O)C(=O)O)C(=O)N[C@H](C(N)=O)[C@@H](C)O)C(C)C [Example 67, N^ε28-[(4S)-4-carboxy-4-[[(4S)-4-carboxy-4-[[(2S)-2-[[(2S)-4-carboxy-2-[[(2S)-2-[[(4S)-4-carboxy-4-[[(4S)-4-carboxy-4-(17-carboxyheptadecanoylamino)butanoyl]amino]butanoyl]amino]-3-hydroxypropanoyl]amino]butanoyl]amino]-3-hydroxypropanoyl]amino]butanoyl]amino]butanoyl]-[Aib2,Leu10,Glu15,Arg20,Glu21,Leu27,Lys28]-Glucagon amide] (H-H[Aib]QGTFTSDLSKYLESRRAREFVQWLLK([γGlu-γGlu-Ser-Glu-Ser-γGlu-γGlu-C18 diacid])T-NH2; N-terminus assumed)	4
